Results: patent publication US10294202B2, “Pyrrolidinones as herbicides” (FMC Corporation, priority 2013, dated 2019)

Assays:
[1] = system: foxtail, giant; assay: Test C pre-/postemergence herbicide test; type: in vivo, Setaria faberii
Method in brief: (§1)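 Two application timings ran in parallel with identically formulated test chemicals (non-phytotoxic solvent, surfactant included): spray on seeded loam–sand soil, and spray on emerged plants 2 to 18 cm high. Evaluation at 13 to 15 days compared each species with controls, rated from 0 up to 100.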

[2] = system: johnsongrass; assay: Test C pre-/postemergence herbicide test; type: in vivo, Sorghum halepense
Method in brief: as §1

[3] = system: lambsquarters; assay: Test C pre-/postemergence herbicide test; type: in vivo, Chenopodium album
Method in brief: as §1

[4] = system: wheat (winter wheat); assay: Test C pre-/postemergence herbicide test; type: in vivo, Triticum aestivum
Method in brief: as §1

[5] = system: galium; assay: Test C pre-/postemergence herbicide test; type: in vivo, Galium aparine; conditions: Postemergence
Method in brief: as §1

[6] = system: morningglory; assay: Test C pre-/postemergence herbicide test; type: in vivo, Ipomoea coccinea
Method in brief: as §1

[7] = system: barnyardgrass; assay: Test C pre-/postemergence herbicide test; type: in vivo, Echinochloa crus-galli
Method in brief: as §1

[8] = system: wheat; assay: Test A pre-/postemergence herbicide test; type: in vivo, Triticum aestivum; conditions: Postemergence
Method in brief: (§2)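 Directed soil spray to seeded pots (preemergence) or spray onto one- to two-leaf seedlings 2–10 cm tall (postemergence); loam/sand substrate throughout. Evaluated visually after about 10 days against untreated plants, 0 = no effect, 100 = complete control.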

[9] = system: giant foxtail; assay: Test A pre-/postemergence herbicide test; type: in vivo, Setaria faberii
Method in brief: as §2

[10] = system: pigweed; assay: Test C pre-/postemergence herbicide test; type: in vivo, Amaranthus retroflexus
Method in brief: as §1

[11] = Postemergence, 8 g ai/ha, scale 0 to 100 (0 no effect, 100 complete control)
[12] = Postemergence, 16 g ai/ha, scale 0 to 100 (0 no effect, 100 complete control)
[13] = Postemergence, 31 g ai/ha, scale 0 to 100 (0 no effect, 100 complete control)
[14] = Postemergence, 62 g ai/ha, scale 0 (no effect) to 100 (complete control)
[15] = Preemergence, 31 g ai/ha, scale 0 to 100, 0 is no effect and 100 is complete control
[16] = Preemergence, 62 g ai/ha, scale 0 to 100 (0 no effect, 100 complete control)
[17] = Preemergence, 8 g ai/ha, scale 0 to 100
[18] = Preemergence, 16 g ai/ha, scale 0 to 100

CN1CC(c2ccc(F)cc2)C(C(=O)Nc2cccc(F)c2F)C1=O (centres unmarked) [Compound 271]
Plant response rating, Foxtail, Giant [1, 11]: 0 | Plant response rating, Foxtail, Giant [1, 12]: 0 | Plant response rating, Foxtail, Giant [1, 13]: 0 | Plant response rating, Foxtail, Giant [1, 14]: 0 | Foxtail, Giant plant response rating [1, 15]: 90 | Foxtail, Giant plant response rating [1, 16]: 98 | Plant response rating, Foxtail, Giant [1, 17]: 55 | Plant response rating, Foxtail, Giant [1, 18]: 75 | Plant response rating, Johnsongrass [2, 11]: 10 | Plant response rating, Johnsongrass [2, 12]: 10 | Plant response rating, Johnsongrass [2, 13]: 10 | Plant response rating, Johnsongrass [2, 14]: 10 | Johnsongrass plant response rating [2, 15]: 0 | Johnsongrass plant response rating [2, 16]: 10 | Plant response rating, Johnsongrass [2, 17]: 0 | Plant response rating, Johnsongrass [2, 18]: 0 | Plant response rating, Lambsquarters [3, 11]: 10 | Plant response rating, Lambsquarters [3, 12]: 45 | Plant response rating, Lambsquarters [3, 13]: 50 | Plant response rating, Lambsquarters [3, 14]: 55 | Lambsquarters plant response rating [3, 15]: 0 | Lambsquarters plant response rating [3, 16]: 20 | Plant response rating, Lambsquarters [3, 17]: 0 | Plant response rating, Lambsquarters [3, 18]: 0 | Plant response rating, Wheat [4, 11]: 0 | Plant response rating, Wheat [4, 12]: 0 | Plant response rating, Wheat [4, 13]: 0 | Plant response rating, Wheat [4, 14]: 0 | Wheat plant response rating [4, 15]: 0 | Wheat plant response rating [4, 16]: 0 | Plant response rating, Wheat [4, 17]: 0 | Plant response rating, Wheat [4, 18]: 0 | Plant response rating, Galium ([5]; 8 g ai/ha, scale 0 to 100 (0 no effect, 100 complete control)): 0 | Plant response rating, Galium ([5]; 16 g ai/ha, scale 0 to 100 (0 no effect, 100 complete control)): 5 | Plant response rating, Galium ([5]; 31 g ai/ha, scale 0 to 100 (0 no effect, 100 complete control)): 30 | Plant response rating, Galium ([5]; 62 g ai/ha, scale 0 (no effect) to 100 (complete control)): 30 | Plant response rating, Morningglory [6, 11]: 0 | Plant response rating, Morningglory [6, 12]: 0 | Plant response rating, Morningglory [6, 13]: 10 | Plant response rating, Morningglory [6, 14]: 45 | Morningglory plant response rating [6, 15]: 0 | Morningglory plant response rating [6, 16]: 10 | Plant response rating, Morningglory [6, 17]: 0 | Plant response rating, Morningglory [6, 18]: 0 | Plant response rating, Barnyardgrass [7, 11]: 0 | Plant response rating, Barnyardgrass [7, 12]: 0 | Plant response rating, Barnyardgrass [7, 13]: 0 | Plant response rating, Barnyardgrass [7, 14]: 0 | Barnyardgrass plant response rating [7, 15]: 90 | Barnyardgrass plant response rating [7, 16]: 95 | Plant response rating, Barnyardgrass [7, 17]: 0 | Plant response rating, Barnyardgrass [7, 18]: 75 | Plant response rating, Wheat ([8]; 125 g ai/ha, visual rating on 0 to 100 scale (0 no effect, 100 complete control), approx. 10 days): 0 | Plant response rating, Wheat ([8]; 500 g ai/ha, 0 to 100 scale (0 no effect, 100 complete control)): 80 | Plant response rating, Foxtail, Giant ([9]; Postemergence, 125 g ai/ha, 0 to 100 scale, 0 is no effect, 100 is complete control): 90 | Plant response rating, Foxtail, Giant ([9]; Postemergence, 500 g ai/ha, 0 to 100 scale (0 no effect, 100 complete control)): 90 | Plant response rating, Foxtail, Giant ([9]; Preemergence, 125 g ai/ha, 0 to 100 scale where 0 is no effect and 100 is complete control): 90 | Plant response rating, Foxtail, Giant ([9]; preemergence, 500 g ai/ha, 0 to 100 scale, 0 is no effect and 100 is complete control): 90 | Plant response rating, Pigweed [10, 11]: 5 | Plant response rating, Pigweed [10, 12]: 5 | Plant response rating, Pigweed [10, 13]: 10 | Plant response rating, Pigweed [10, 14]: 30 | Pigweed plant response rating [10, 15]: 0 | Pigweed plant response rating [10, 16]: 25 | Plant response rating, Pigweed [10, 18]: 0
